Results as given in patent publication US10703698B2, “Compounds which activate estrogen receptors and compositions and methods of using the same” (The Board of Trustees of the University of Illinois, priority 2016, dated 2020).
“Also recorded” adds a separate entry of the source.

Experiments:
LRRC54 gene = experiment: LRRC54 (non-genomic gene) mRNA expression, qPCR; details: for LRRC54 (non-genomic gene) mRNA expression, in words: MCF-7 cells, 1 μM PaPE or 10 nM E2 for 4 h where stated, versus vehicle, E2 or compound 2
Source text: (§2) Quantitation of signal intensities is shown in panel at the right.

LRRC54 gene vs PgR gene = experiment: preferential activation of non-genomic (LRRC54) over genomic (PgR) gene; details: relative to activation by E2
[1] = molecular target: T1, purified full-length human ERα (Homo sapiens, UniProt P03372); experiment: competitive radiometric binding assay, relative binding affinity (RBA); details: relative to estradiol = 100
T1 construct: using purified full-length human ERα and ERβ
T1 sequence (P03372 1-595): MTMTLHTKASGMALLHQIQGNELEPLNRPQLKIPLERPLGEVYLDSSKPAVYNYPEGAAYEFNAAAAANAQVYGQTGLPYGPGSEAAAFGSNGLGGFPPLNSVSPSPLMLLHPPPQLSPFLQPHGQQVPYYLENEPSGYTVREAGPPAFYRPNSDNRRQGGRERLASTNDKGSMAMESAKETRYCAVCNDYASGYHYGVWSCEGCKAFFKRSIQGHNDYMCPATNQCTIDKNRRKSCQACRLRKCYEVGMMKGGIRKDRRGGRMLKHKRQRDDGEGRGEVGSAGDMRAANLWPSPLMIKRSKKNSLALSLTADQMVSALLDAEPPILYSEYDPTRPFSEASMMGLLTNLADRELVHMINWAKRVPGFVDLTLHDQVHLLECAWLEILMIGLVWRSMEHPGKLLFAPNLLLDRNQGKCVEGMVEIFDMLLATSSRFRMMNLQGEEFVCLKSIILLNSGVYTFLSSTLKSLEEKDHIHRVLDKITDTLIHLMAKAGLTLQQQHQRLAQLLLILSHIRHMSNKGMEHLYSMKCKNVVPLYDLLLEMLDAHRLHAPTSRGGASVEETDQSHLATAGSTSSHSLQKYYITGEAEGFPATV
Source text: (§1) FIG. 1. […] […]

[2] = molecular target: T2, purified full-length human ERβ (Homo sapiens, UniProt Q92731); experiment: as above; details: relative to estradiol = 100
T2 construct: using purified full-length human ERα and ERβ
T2 sequence (Q92731 whole entry): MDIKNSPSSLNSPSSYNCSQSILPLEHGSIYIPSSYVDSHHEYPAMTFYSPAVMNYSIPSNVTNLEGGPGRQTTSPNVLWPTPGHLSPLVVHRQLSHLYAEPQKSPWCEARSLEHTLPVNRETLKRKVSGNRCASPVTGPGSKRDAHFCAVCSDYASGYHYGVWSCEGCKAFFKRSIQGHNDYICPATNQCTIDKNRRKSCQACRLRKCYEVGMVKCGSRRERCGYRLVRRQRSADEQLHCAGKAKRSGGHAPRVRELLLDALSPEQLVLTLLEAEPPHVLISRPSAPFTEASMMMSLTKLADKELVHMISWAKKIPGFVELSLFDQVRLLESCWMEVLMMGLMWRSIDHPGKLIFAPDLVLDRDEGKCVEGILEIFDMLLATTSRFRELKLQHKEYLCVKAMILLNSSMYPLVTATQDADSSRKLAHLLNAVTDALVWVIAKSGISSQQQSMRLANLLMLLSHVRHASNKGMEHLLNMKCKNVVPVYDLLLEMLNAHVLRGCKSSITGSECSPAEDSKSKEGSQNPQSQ
Source text: as §1

PgR gene = experiment: PgR (genomic gene) mRNA expression, qPCR; details: MCF-7 cells; 1 μM PaPE or 10 nM E2 for 4 h where stated; versus vehicle or E2
Source text: as §2

eNOS = eNOS activation in primary endothelial cells (14C-L-arginine to 14C-L-citrulline); type: cell-based, bovine; details: 15 min; 10 nM ligand (FIG. 9E)
MCF-7 cells = experiment: oleic acid (OA)-induced MCF-7 cell proliferation, WST1; details: 100 nM OA, agent 1 μM, 6 days
Protocol: Screening of FFAs for stimulating effects on cell proliferation. […] FFA mix contains all the single free fatty acids tested in this experiment. Lipid mix (mixture of cholesterol and fatty acids) was purchased from Sigma. Six replicates were used in each assay, and the experiment was repeated twice. […] Mean±SEM is plotted.
(D) OA effect on MCF-7 cell proliferation with and without PaPE-1. Dose-response of OA on cell proliferation was tested alone or in combination with and without PaPE-1 (1 μM) for 6 days before WST1 assay. The experiment has six technical replicates and was repeated twice. A two-way analysis of variance (ANOVA) model was fitted to assess the contribution of OA dose and inhibitor (Ctrl, and PaPE-1) treatment on MCF-7 cell proliferation. When the main effects were statistically significant at α=0.05, pairwise t-tests with a Bonferroni correction were employed to identify if treatment were statistically different from each other. **** p<0.0001. Mean±SEM is plotted. […] In the above cell proliferation experiments, MCF-7 cells were treated in whole growth medium adding the designated compounds. The treatment went for 6 days and OD at 450 was measured by WST1 assay. […] The experiment is repeated twice. A two-way analysis of variance (ANOVA) model was fitted to assess the contribution of ligand (Veh or OA) and inhibitor (Ctrl, 4-OH-Tam, Fulv, RAD001 and PaPE-1) treatment on MCF-7 cell proliferation. When the main effects were statistically significant at α=0.05, pairwise t-tests with a Bonferroni correction were employed to identify if treatment were statistically different from each other. **** p<0.0001. Mean±SEM is plotted. […] The MCF-7 cells were treated with Veh, 1 μM 4-OH-tam, 1 μM Fulv, and 1 μM PaPE-1 for six days before WST-1 assay in serum from 63 obese individuals (Left) and in standard cell culture (Right).

Compound | LRRC54 (non-genomic gene) mRNA expression, in words (LRRC54 gene) | preference for activation of the non-genomic pathway (LRRC54 over PgR), in words (LRRC54 gene vs PgR gene) | ERα RBA (relative binding affinity) [1] | ERβ RBA (relative binding affinity) [2] | PgR (genomic gene) mRNA expression, in words (PgR gene) | eNOS / NOS activity (eNOS) | OA-induced MCF-7 cell proliferation with added agent (MCF-7 cells) | LRRC54 stimulation compared to E2 (LRRC54 gene; FIG. 14)
OCc1cc(-c2cc(Cl)c(O)c(Cl)c2)ccc1O [Compound 64, 3,5-Dichloro-3′-(hydroxymethyl)-[1,1′-biphenyl]-4,4′-diol] | expression level is less than for compound 2 | selective expression of the non-genomic LRRC54 gene compared to E2 |  |  |  |  |  | 
Cc1cc(C)cc(-c2ccc3c(c2)CCC3O)c1 (stereo not shown) [Compound 12, 5-(3,5-dimethylphenyl)-2,3-dihydro-1H-inden-1-ol] | some non-genomic activity |  | 0.001 ± 0 | 0.002 ± 0.001 | strongly stimulate the genomic gene PgR |  |  | 
Cc1cc(-c2ccc3c(c2)CCC3O)ccc1O (stereo not shown) [Compound 55, 5-(4-hydroxy-3-methylphenyl)-2,3-dihydro-1H-inden-1-ol] |  |  | 0.002 | 0.004 | stimulated two fold greater than that with E2 |  |  | 
CC(=O)NCCNC(=O)CCC(C)(c1ccc(O)cc1)c1ccc(O)cc1 [PaPE-4, Diphenolic acid-NHEtNHAc] |  |  |  |  |  | increased NOS activity |  | 
Cc1cc(-c2cc(C)c(O)c(C)c2)ccc1CO [Compound 26] |  |  | <0.001 | 0.002 ± 0.001 | slight higher than the vehicle level |  |  | 
Cc1cc(-c2ccc(CO)c(C(F)(F)F)c2)cc(C)c1O [Compound 27] |  |  | 0.003 ± 0.001 | 0.003 ± 0 | slight higher than the vehicle level |  |  | 
Cc1cc(-c2ccc(O)c(CO)c2)cc(C)c1O [Compound 59, 3′-(hydroxymethyl)-3,5-dimethyl-[1,1′-biphenyl]-4,4′-diol] | expression level is less than for compound 2 | selective expression of the non-genomic LRRC54 gene compared to E2 |  |  |  |  |  | 
Oc1c(Cl)cc(-c2ccc3c(c2)CCC3O)cc1Cl (stereo not shown) [Compound 63, 5-(3,5-dichloro-4-hydroxyphenyl)-2,3-dihydro-1H-inden-1-ol] | two-fold less than that of compound 2 | stimulates the non-genomic gene LRRC54 selectively | 0.005 | 0.006 |  |  |  | 
Cc1cc(-c2ccc3c(c2)CCC3C#N)cc(C)c1O (stereo not shown) [Compound 9, 5-(4-hydroxy-3,5-dimethylphenyl)-2,3-dihydro-1H-indene-1-carbonitrile] | no non-genomic activity |  | 0.003 ± 0.001 | 0.002 ± 0.001 |  |  |  | 
OCc1cc(-c2ccc3c(c2)CCC3O)ccc1O (stereo not shown) [Compound 57, 5-(4-hydroxy-3-(hydroxymethyl)phenyl)-2,3-dihydro-1H-inden-1-ol] | increases the expression of the non-genomic LRRC54 gene | considerable non-genomic gene selectivity |  |  |  |  |  | 
Cc1cc(-c2ccc(O)cc2)cc(C)c1O [Compound 35] | principally loss of LRRC54 gene expression |  | 0.011 ± 0.003 | 0.755 ± 0.20 |  |  |  | 
O=C(c1ccc(OCCN2CCCCC2)cc1)c1c(-c2ccc(O)cc2)sc2cc(O)ccc12 [Raloxifene, reference compound] | blocks expression of both the non-genomic LRRC54 and genomic PgR genes | Neither Raloxifene (RAL) nor hydroxytamoxifen (TOT) show selective activation of the non-genomic gene LRRC54 |  |  | blocks expression of both the non-genomic LRRC54 and genomic PgR genes |  |  | 
Cc1cc(-c2ccc3c(c2)CCCC3O)cc(C)c1O (stereo not shown) [Compound 16, 6-(4-hydroxy-3,5-dimethylphenyl)-1,2,3,4-tetrahydronaphthalen-1-ol] |  | some selectivity for the non-genomic gene but less than that of compound 2 | 0.002 ± 0.001 | 0.004 ± 0.003 |  | increased NOS activity |  | 
Oc1ccc(-c2ccc3c(c2)CCC3O)cc1 (stereo not shown) [Compound 32] |  |  | 0.005 ± 0.001 | 0.190 ± 0.04 | stimulate PgR gene expression at a level close to that of E2 |  |  | 
Cc1cc(-c2ccc3c(c2)CCC3O)cc(CO)c1O (stereo not shown) [Compound 56, 5-(4-hydroxy-3-(hydroxymethyl)-5-methylphenyl)-2,3-dihydro-1H-inden-1-ol] | increases the expression of the non-genomic LRRC54 gene | considerable non-genomic gene selectivity | <0.001 | <0.001 |  |  |  | 
Cc1cc(-c2ccc(C(C)O)cc2)cc(C)c1O (stereo not shown) [Compound 15, 4′-(1-hydroxyethyl)-3,5-dimethyl-[1,1′-biphenyl]-4-ol] |  | some selectivity for the non-genomic gene but less than that of compound 2 | 0.002 ± 0.001 | 0.005 ± 0.003 |  | increased NOS activity |  | 
Cc1cc(-c2ccc(CCO)cc2)cc(C)c1O [Compound 45, 4′-(2-hydroxyethyl)-3,5-dimethyl-[1,1′-biphenyl]-4-ol] | preferentially stimulate LRRC54 better than E2 |  | 0.001 | 0.002 |  |  |  | 
CO[C@H]1C[C@@H]2CC[C@@H](C)[C@@](O)(O2)C(=O)C(=O)N2CCCC[C@H]2C(=O)O[C@H]([C@H](C)C[C@@H]2CC[C@@H](OCCO)[C@H](OC)C2)CC(=O)[C@H](C)/C=C(\C)[C@@H](O)[C@@H](OC)C(=O)[C@H](C)C[C@H](C)/C=C/C=C/C=C/1C [RAD001] |  |  |  |  |  |  | blocked OA-induced cell proliferation; also recorded: suppressed | 
Cc1cc(-c2ccc3c(c2)CCC3Cl)cc(C)c1O (stereo not shown) [Compound 8, 4-(1-chloro-2,3-dihydro-1H-inden-5-yl)-2,6-dimethylphenol] | stimulation of the nongenomic gene (LRRC54), but to a lesser degree than compound 2 |  | 0.001 ± 0 | 0.006 ± 0.001 |  |  |  | 50%
COC1CC(O)c2ccc(-c3cc(C)c(O)c(C)c3)cc21 (stereo not shown) [Compound 30] | elevated both genomic and nongenomic gene expression to a higher level than does its parent compound 29 |  | 0.002 ± 0.001 | 0.002 ± 0.001 | elevated both genomic and nongenomic gene expression to a higher level than does its parent compound 29 |  |  | 
Cc1cc(-c2ccc(CO)c(O)c2)cc(C)c1O [Compound 60, 4-(hydroxymethyl)-3′,5′-dimethyl-[1,1′-biphenyl]-3,4′-diol] | expression level is less than for compound 2 | selective expression of the non-genomic LRRC54 gene compared to E2 | <0.001 | ~0.001 |  |  |  | 
Cc1cc(-c2cccc(CO)c2)cc(C)c1O [Compound 24] |  |  | 0.005 ± 0.001 | 0.004 ± 0 | slight higher than the vehicle level |  |  | 
